# What was measured:
# [1] = tested on: CD44high/CD24low population of MDA-MB-231 cells; assay: CD44+/CD24- flow cytometry; format: cell-based, human; details: 50 μM, 24 hours, control 80.8%
# Description: MDA-MB-231 cancer cells (1.5×10^6 cells) were cultured in a 6-well plate for 24 hours and treated with DMSO as a control group or dihydroconiferyl ferulate (50 μM) for 24 hours. Thereafter, the cells isolated into single cells were incubated with an anti-human CD44 antibody (FITC-conjugated) and an anti-human CD24 antibody (PE-conjugated) (BD) at 4° C. for 45 minutes. After washing with 1×PBS, CD44^+/CD24^− cells were examined using a flow cytometer Accuri C6 machine (BD San Jose, CA, USA).
# CD44^+/CD24^−, a representative marker of breast cancer stem cells, was associated with stem cell-like activity in breast cancer, and since CD44^+/CD24^− MDA-MB-231 cells show higher tumorigenesis and metastasis than CD44−/CD24^+ MDA-MB-231 cells, MDA-MB-231 cells were treated with dihydroconiferyl ferulate, and then changes in the CD44^high/CD24^low population were measured, and the experimental method was described in Experimental Example 5.
# MCF-7 cells = assay: Cell proliferation / viability assay (EZ-Cytox); format: cell-based; details: Homo sapiens, MCF7, A of FIG. 6, read-out: IC50 (drug concentration required for 50% growth reduction in a survival curve)
# Description: Human breast cancer cell lines, MDA-MB-231 and MCF-7 cells, were purchased from the Korea Cell Line Bank and cultured in an incubator with an atmospheric environment of 5% CO2 and a Dulbecco's Modified Eagle's Medium (DMEM) containing 10% fetal bovine serum (Corning, Glendale, AZ, USA) and 1% penicillin/streptomycin.
# MCF-7 cells (1.5×10^6 cells/plate) and MDA-MB-231 cells (1.0×10^6 cells/plate) were seeded into a 96-well plate for 24 hours and incubated with dihydroconiferyl ferulate (0, 10, 25, 50, 75, 100, 150, and 200 μM). Thereafter, cell viability was examined using the EZ-Cytox Plus Kit (DoGenBio, Seoul, Korea) according to the manufacturer's protocol. OD450 values were measured using a VERSAmax ELISA reader (Molecular Device, San Jose, CA, USA).
# Breast cancer cells MCF-7 and MDA-MB-231 were treated with dihydroconiferyl ferulate, a compound purified from the leaves of Dendropanax morbiferus H.Lev at various concentrations to test an antiproliferative effect, and an experimental method was described in Experimental Example 3.
structure (smiles),measurement,setting,value
COc1cc(/C=C/C(=O)OCCCc2ccc(O)c(OC)c2)ccc1O [dihydroconiferyl ferulate],CD44high/CD24low population,[1],34.0%
same,IC50,MCF-7 cells,112 µM

# From patent US20240115537A1, “COMPOSITION FOR PREVENTING OR TREATING BREAST CANCER COMPRISING COMPOUND DERIVED FROM DENDROPANAX MORBIFERUS” (JEJU NATIONAL UNIVERSITY INDUSTRY-ACADEMIC COOPERATION …, priority 2022, published 2024)
